The values below are quoted from earlier work in patent US11865206B2 (priority 2018, dated 2024).

Like-named read-outs stand apart in the source and are kept apart here.

Test in data set [1]: not given
This is another data set of the same source.

On to `O=NN(CCCl)C(=O)NCCCl` [Carmustine, 1,3-bis(2-chloroethyl)-1-nitrosourea], for which the Solubility result is listed as “highly soluble” (in alcohol and lipids); “poorly soluble” (in water). In addition, the “Crossing of the blood brain barrier” value in data set [1] (following IV infusion) was “can cross the blood brain barrier”. The Oral bioavailability entry in data set [1] (oral) is “poor oral bioavailability”.
